Assay results taken from ChEMBL document CHEMBL5729483, “Compositions and methods for treating infections” (2022).

Target: Bifunctional dihydrofolate reductase-thymidylate synthase (Plasmodium falciparum K1, UniProt P13922)
Assay: TBD: TBD
Set-up: species or system Isolate K1 / Thailand

Bifunctional dihydrofolate reductase-thymidylate synthase, sequence (P13922 whole entry): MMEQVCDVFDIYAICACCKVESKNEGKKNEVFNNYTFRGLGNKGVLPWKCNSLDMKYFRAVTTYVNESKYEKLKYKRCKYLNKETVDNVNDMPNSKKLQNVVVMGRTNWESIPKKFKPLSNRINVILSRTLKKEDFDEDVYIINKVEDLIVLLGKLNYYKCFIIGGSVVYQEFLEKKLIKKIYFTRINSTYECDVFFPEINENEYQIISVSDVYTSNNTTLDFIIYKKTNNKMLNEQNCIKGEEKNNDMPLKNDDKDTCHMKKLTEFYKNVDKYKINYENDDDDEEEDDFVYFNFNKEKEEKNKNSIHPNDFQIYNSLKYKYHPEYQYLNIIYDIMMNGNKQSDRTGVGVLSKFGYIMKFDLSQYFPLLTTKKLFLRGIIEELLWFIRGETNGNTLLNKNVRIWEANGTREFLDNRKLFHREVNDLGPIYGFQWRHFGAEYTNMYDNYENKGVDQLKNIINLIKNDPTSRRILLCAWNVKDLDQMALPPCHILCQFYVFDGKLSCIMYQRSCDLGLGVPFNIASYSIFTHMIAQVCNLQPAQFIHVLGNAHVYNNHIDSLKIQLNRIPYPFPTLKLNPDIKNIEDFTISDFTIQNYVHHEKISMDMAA

Nc1ncc(N2CCN(c3cccc(C4CCOCC4)c3)CC2)c(N)n1
IC50: 1.1 nM
